From patent publication US4173636A, “Decahydroquinolines, pharmaceutical compositions and methods of use” (Labaz, priority 1975, dated 1979) come the findings set out here.

Like-named read-outs stand apart in the source and are kept apart here.

Experiment [1] concerns pain-threshold voltage. Description: CHARLIER electric stimulation pain-threshold test, intragastric. Particulars: Rattus norvegicus, po. In kind it is in vivo, rats. The procedure:
The fourth test was carried out according to the technique of CHARLIER and al (Arch. int. Pharmacodyn. 134, 306, 1961) on batches of 10 rats.
The animals were connected to a source of electric current by means of two electrodes of which one was attached to the tail and the other maintained in the rectum.
The pain-threshold voltage was then determined for each rat by passing a current of 2 volts and increasing the current by one volt at a time until the animal gave a squeak. This control test was repeated three times at intervals of 15 minutes. The compound under study was then administered by intragastric route and, starting from the threshold-voltage already determined note was taken, every 10 minutes for 2 hours, of the voltage which caused the animals to squeak.
The results were noted according to the WINTER and FLATAKER scale (J. Pharmacol. Exp. Therap. 98, 305, 1950) and the AD's 50 obtained are listed in the Table given hereunder: […]

For experiment [2], the system named is contorsions. Description: KOSTER acetic acid contorsion test, intragastric. Particulars: Mus musculus, po. In kind it is in vivo, mice. The procedure:
The first test was carried out according to the technique of KOSTER (Fed. Proc. 18, 412, 1959) on batches of 20 mice which had been deprived of food for 18 hours.
Each batch of animals with the exception of the controls was given an intragastric dose of the compound to be studied so that each batch received a higher dose than the preceding batch. Thirty minutes after administration, the animals of each batch, as well as the control animals, were given intraperitoneally 0.2 ml. of a 0.25% acetic acid solution per 10 g. of body-weight.
During the 20 minutes following the injection of acetic acid, the number of characteristic contorsions made by the animals was noted. The absence of contorsions corresponds to animals under the influence of analgesia.
Note was taken of the AD50, i.e. the dose of the compound under study which provoked analgesia in half of the animals treated.

The subject of experiment [3] is squeak at threshold-voltage (pain). Description: NILSEN electric tail stimulation test, intragastric. The experiment is classed as in vivo, mice. Particulars: Mus musculus, po. The procedure:
The second test was carried out according to the technique of NILSEN (Acta Pharmacol. et toxicol. 18, 10, 1961) on batches of 10 mice.
The animals were connected to a source of electric current by means of two electrodes inserted into the tail.
The threshold-voltage was then determined, i.e. the minimum voltage which, in the course of two successive shocks, caused the animals to squeak at least one time out of two. After this, the compound to be studied was administered by intragastric route.
Note was taken of the dose of compound (AD50) which suppressed the squeak in half of the treated animals.

The subject of experiment [4] is contorsions. Description: SIEGMUND phenylbenzoquinone contorsion test. The experiment is classed as in vivo, male mice. Particulars: Mus musculus. The procedure: The third test was carried out according to the technique of SIEGMUND and al (Proc. Soc. Exp. Biol. Med. 95, 729, 1957) on batches of 10 male mice.
A typical syndrome was produced in the animals by intraperitoneal injection of 0.25 ml. of a 0.02% aqueous solution of 2-phenyl-1,4-benzoquinone (phenylbenzoquinone).
The syndrome in question is characterized by intermittent contractions of the abdomen, twisting and turning of the trunk and extension of the hind legs. Note was taken of the number of movements occurring over a period of 30 minutes starting 15 minutes after the injection of phenylbenzoquinone.
The compound to be tested was injected 30 minutes before the phenylbenzoquinone in such a way that each batch received a higher dose than the preceding batch, a control batch receiving only the phenylbenzoquinone.
Note was taken of the AD50, i.e. the dose of substance which reduced at least by half the number of contorsions in half of the animals, as compared to the number of contorsions observed in the control group.

Experiment [5] concerns squeak at threshold-voltage (pain). Description: animal or person. In kind it is in vivo, mice. As to conditions: Mus musculus, sc, read-out: AD50.
In experiment [6] the test system is contorsions. Description: animal or person. The experiment is classed as in vivo, mice. As to conditions: Mus musculus, sc, read-out: AD50.
Experiment [7] has as its system reaction time (flick-tail). Description: animal or person. Particulars: Rattus norvegicus, sc, read-out: AD50. The experiment is classed as in vivo, male rats.

With `CCOc1ccc(NC(C)=O)cc1` [Phenacetine], the ED50 in experiment [1] (2 h, read-out: AD50) stood at 750 mg/kg; in experiment [2] (read-out: AD50) it was 160 mg/kg; in experiment [3] (read-out: AD50) it was 450 mg/kg; in experiment [4] (read-out: AD50), 80 mg/kg.
As to `CC(C)=CCN1CCC2(C)c3cc(O)ccc3CC1C2C` (stereo not shown) [Pentazocine], the ED50 in experiment [5] was 12 mg/kg; in experiment [2] (read-out: AD50), 45 mg/kg; in experiment [6], 5 mg/kg; in experiment [7], 3 mg/kg.
Take `CC(=O)Oc1ccccc1C(=O)O` [Acetylsalicyclic acid, Acetylsalicylic acid]: the ED50 in experiment [1] (2 h, read-out: AD50) was found to be 1300 mg/kg; in experiment [2] (read-out: AD50), 150 mg/kg; in experiment [3] (read-out: AD50), 1100 mg/kg; in experiment [4] (read-out: AD50), 50 mg/kg.
In the case of `CCOC(=O)C1(c2ccccc2)CCN(C)CC1` [Pethidine], the ED50 was 7 mg/kg in experiment [5]; 50 mg/kg in experiment [1] (2 h, read-out: AD50); 7 mg/kg in experiment [6]; 5.5 mg/kg in experiment [7].
On to `Cc1cc(=O)n(-c2ccccc2)n1C` [Antipyrine], for which the ED50 in experiment [1] (intragastric, rats, WINTER and FLATAKER scale, 2 hours, read-out: AD50 (the source's name)) is 500 mg/kg; in experiment [2] (intragastric, mice, 30 min before 0.25% acetic acid i.p., analgesia in half of the animals, read-out: AD50 (the source's name)) it was 120 mg/kg; in experiment [3] (intragastric, mice, suppressed the squeak in half of the treated animals, read-out: AD50 (the source's name)), 400 mg/kg; in experiment [4] (injected 30 minutes before phenylbenzoquinone, male mice, contorsions reduced at least by half in half of the animals, read-out: AD50 (the source's name)), 100 mg/kg.
Regarding `O=C(OCC(O)CO)c1ccccc1Nc1ccnc2cc(Cl)ccc12` (stereo not shown) [Glafenine], the ED50 in experiment [2] (read-out: AD50) was 110 mg/kg; in experiment [4] (read-out: AD50), 325 mg/kg.
